Measurements reported in article PMC9370035, “Identification of 3-Oxindole Derivatives as Small Molecule HIV-1 Inhibitors Targeting Tat-Mediated Viral Transcription” (Molecules, 2022).

What was measured:
[1] = Cell viability (resazurin-based PrestoBlue) in parallel with infectivity assay; details: human, TZM-bl cells; for viability at 48 h, 3 µM: with infection of HIV-1 NL4-3 at MOI of 1; for CC50 at 48 h: serial dilution starting from 100 μM, read-out: CC50 (concentration that reduces cell viability by 50%)
HIV-1NL4-3 [2] = assay: HIV-1 infectivity assay in TZM-bl cells (F-Luc under HIV-1 LTR); type: cell-based; details: for inhibition at 3 µM / IC50: Human immunodeficiency virus 1, NL43, TZM-bl; for inhibition at 3 µM: 48 h, read-out: Inhibition of HIV-1 Infectivity (%), TZM-bl cells, 3 μM, HIV-1 NL4-3 at MOI of 1, 48 h; for IC50: read-out: IC50 (inhibition of HIV-1 infection); for Inhibition of HIV-1 Infectivity (%) / Inhibition ratio of HIV-1 infectivity, dose response: TZM-bl cells; for Inhibition of HIV-1 Infectivity (%): 3 μM, HIV-1 NL4-3 at MOI of 1, 48 h; for Inhibition ratio of HIV-1 infectivity, dose response: HIV-1NL4-3, up to a concentration of 25 μM
Description: TZM-bl cells (also referred as JC53BL-13) expressing human CD4, CXCR4, and CCR5 in order to facilitate HIV-1 infection, which contain the firefly luciferase (F-Luc) gene under the control of HIV-1 long terminal repeat (LTR) promoter was used to determine inhibitory effect of the compounds on HIV-1 infection, as described previously with minor modifications. […] Without replacement of a culture medium, the cells were then infected with the HIV-1NL4-3 strain at a multiplicity of infection (MOI) of 1 to determine the exact inhibitory effect of compounds on a single round infection. After 48 h, the inhibitory effect of the compounds was determined using a Bright Glo luciferase assay kit (Promega). The infectivity data are presented as a percentage relative to the DMSO control (vehicle). The inhibitory effects of the compounds on viral replication were determined with some minor modifications, as described previously. […] PBMCs were pre-activated with phytohemagglutinin M (PHA-M) for 3 days. The pre-activated 4 × 10^5 of PBMCs were washed with fresh media to remove excess PHA-M and then infected with HIV-1NL4-3 or HIV-1AD8 as that of A3.01 infection.

[3] = test system: Tat-mediated HIV-1 transcription; assay: microbe, parasite or virus in culture; type: cell-based; details: for Inhibition of Tat-induced HIV-1 transcription, concentration response / Tat-induced transcriptional activity (F-Luc): bl-DTR cells; for Inhibition of Tat-induced HIV-1 transcription, concentration response: 0 to 25 μM; for Tat-induced transcriptional activity (F-Luc): 3 μM, doxycycline 50 ng/mL, 24 h
Description: (§1) bl-DTR (TZM-bl-derived dual Tat reporter) cells derived from TZM-bl cells by insertion of two doxycycline-inducible lentiviral vector-expressing flag-tagged tat and Renilla-luciferase (R-Luc) genes were used to determine simultaneously both activities of Tat-mediated HIV-1 transcription and general cellular transcription, as described previously. Determination of the inhibitory effect of the compounds on Tat-mediated transcription was performed as described previously. In brief, 1 × 10^4 of bl-DTR cells cultured in 96-well plates were treated with compounds at a final concentration of 3 μM (Figure 3C) or with 1:2 serially diluted compounds at concentrations ranging from 0 to 25 μM (Figure 4 and Table 3). Subsequently, doxycycline was treated at a final concentration of 50 ng/mL to induce Tat-mediated F-Luc and R-Luc. At 24 h after treatment, the activities of F-Luc and R-Luc were determined by using a Dual-Glo™ luciferase assay system (Promega, Madison, WI, USA) according to the manufacturer’s protocols. The data are presented as a percentage relative to the DMSO control (vehicle) in the presence of doxycycline, and the experiment was performed in triplicate.

TZM-bl cells = assay: Cell viability (resazurin-based PrestoBlue) in parallel with infectivity assay; details: 3 μM, with infection of HIV-1 NL4-3 at MOI of 1
HIV-1 integrase = molecular target: T1, HIV-1 integrase (Human immunodeficiency virus type 1 group M subtype B, UniProt P04585); assay: HIV-1 integrase assay kit; type: biochemical; details: 10 μM
T1 construct: purchased XpressBio, Frederick, MD, USA
Description: The integrase activity was determined using an HIV-1 integrase assay kit (XpressBio, Frederick, MD, USA), according to the manufacturer’s protocols. In brief, a 96-well plate coated with donor substrate (DS) DNA was blocked with blocking buffer for 30 min at 37 °C. One hundred μL of HIV-1 integrase diluted with 1:300 onto reaction buffer was added to the plate, and the plate was then incubated for 30 min at 37 °C. Subsequently, 50 μL of compounds were added to the plate at final concentrations of 10 and 20 μM. At 5 min after addition of compounds, 50 μL of target substrate DNA diluted at 1:100 was added to the plate and incubated for 30 min at 37 °C. The plate was washed and then incubated with 100 μL of horse radish peroxidase antibody solution for 30 min at 37 °C. Integrase activity was assessed by measuring the peroxidase activity reacted with 3,3′,5,5′-tetramethylbenzidine substrate at optical density […]. The experiment was performed in triplicate.

HIV-1NL4-3 [4] = assay: HIV-1 replication assay (p24 […]) in A3.01 T cell line; type: cell-based; details: A3.01 cells, HIV-1NL4-3 MOI 0.1, 1.5 μM, 72 h
Description: (§2) TZM-bl cells (also referred as JC53BL-13) expressing human CD4, CXCR4, and CCR5 in order to facilitate HIV-1 infection, which contain the firefly luciferase (F-Luc) gene under the control of HIV-1 long terminal repeat (LTR) promoter was used to determine inhibitory effect of the compounds on HIV-1 infection, as described previously with minor modifications. In brief, 1 × 10^4 cells were cultured in 96-well plates for 24 h and then treated with compounds at a final concentration of 3 μM (Figure 1A) or with 1:2 serially diluted compounds at concentrations ranging from 0 to 25 μM (dose-response assay; Figure 1B and Table 2). Without replacement of a culture medium, the cells were then infected with the HIV-1NL4-3 strain at a multiplicity of infection (MOI) of 1 to determine the exact inhibitory effect of compounds on a single round infection. After 48 h, the inhibitory effect of the compounds was determined using a Bright Glo luciferase assay kit (Promega). The infectivity data are presented as a percentage relative to the DMSO control (vehicle). The inhibitory effects of the compounds on viral replication were determined with some minor modifications, as described previously. In brief, 5 × 10^4 cells/ well of A3.01 cells were infected with HIV-1NL4-3 at an MOI of 0.1 with the spinoculation at 300 g for 2 h at 25 °C. PBMCs were pre-activated with phytohemagglutinin M (PHA-M) for 3 days. The pre-activated 4 × 10^5 of PBMCs were washed with fresh media to remove excess PHA-M and then infected with HIV-1NL4-3 or HIV-1AD8 as that of A3.01 infection. After infection, the infectious media were replaced with fresh media (supplemented with international 10 units (IU)/mL of IL-2 for PBMCs containing 1.5 μM of compounds. At 72 h after infection, the inhibitory effect of the compounds on viral replication was determined by measuring the amount of p24, an HIV capsid protein, using an HIV-1 p24 […]™ kit (PerkinElmer, Waltham, MA, USA). Cell viability was determined by using the resazurin-based PrestoBlue™ cell viability reagent (Thermo Fisher Scientific, Waltham, MA, USA) according to the manufacturer’s protocols.

HIV-1NL4-3 [5] = assay: HIV-1 replication assay (p24 […]) in PBMCs, CXCR4 tropic strain; type: cell-based; details: HIV-1NL4-3 MOI 0.1, 1.5 μM, 72 h
Description: as §2

[6] = test system: general cellular transcription; assay: R-Luc activity in bl-DTR cells (general cellular transcription); type: cell-based; details: high dosages (12.5 μM and 25 μM)
Description: as §1

`Cc1cn([C@H]2C[C@H](N=[N+]=[N-])[C@@H](CO)O2)c(=O)[nH]c1=O` [AZT, azidothymidine, reference compound] showed a viability at 48 h, 3 µM [1] of 94.8 ± 7.21%, a CC50 at 48 h [1] of over 100 µM and an inhibition at 3 µM (HIV-1NL4-3 [2]) of 99.65 ± 0.048%. It also gave an IC50 (HIV-1NL4-3 [2]) of 0.079 ± 0.0237 µM.
For “Methyl (E)-2-(3-chloroallyl)-5-methyl-3-oxindole-2-carboxylate [Compound 6d]”, the “Inhibition of Tat-induced HIV-1 transcription, concentration response” value (shortened to “Inhibition … concentration response”) [3] was “did not inhibit”, the “Cell Viability (%)” value (TZM-bl cells) was 96.96 ± 9.15% and the “Inhibition of HIV-1 Infectivity (%)” value (HIV-1NL4-3 [2]) was 0.00 ± 10.66%.
In the case of “Methyl (E)-2-(3-chloroallyl)-3-oxindole-2-carboxylate [Compound 6e]”, the “Cell Viability (%)” value (TZM-bl cells) is reported as 95.66 ± 7.32% and the “Inhibition of HIV-1 Infectivity (%)” value (HIV-1NL4-3 [2]) is reported as 11.49 ± 5.66%.
In the case of `C[C@@H]1CCO[C@H]2Cn3cc(C(=O)NCc4ccc(F)cc4F)c(=O)c(O)c3C(=O)N12` [DOL, dolutegravir], the “Inhibition of integrase activity” value (HIV-1 integrase) is reported as “inhibited”.
In the case of `COC(=O)c1[nH]c2ccc(OC)cc2c1OC/C=C/Cl` [Compound 7b, methyl (e)-3-((3-chloroallyl)oxy)-5-methoxy-1h-indole-2-carboxylate], the “Inhibition … concentration response” value [3] is reported as “do not affect”, the melting point is reported as over 300 °C and the viability at 48 h, 3 µM [1] is reported as 110 ± 4.96%. The inhibition at 3 µM (HIV-1NL4-3 [2]) was about 20% and the “Inhibition ratio of HIV-1 infectivity, dose response” value (“Inhibition ratio” for short) (HIV-1NL4-3 [2]) was about 50%.
In the case of `CCOC(=O)c1[nH]c2cccc(C)c2c1OC/C=C/Cl` [Compound 7a, ethyl (e)-3-((3-chloroallyl)oxy)-4-methyl-1h-indole-2-carboxylate], the “Inhibition … concentration response” value [3] is reported as “do not affect”, the melting point is reported as 226 °C and the viability at 48 h, 3 µM [1] is reported as 117 ± 2.7%. The inhibition at 3 µM (HIV-1NL4-3 [2]) was about 20% and the “Inhibition ratio” value (HIV-1NL4-3 [2]) was about 50%.
With `CCCC1(C(=O)OC)Nc2ccc(OC)cc2C1=O` (stereo not drawn) [Compound 6c, Methyl 5-methoxy-3-oxo-2-propylindoline-2-carboxylate] the melting point was 117 to 118 °C, the viability at 48 h, 3 µM [1] was 92.7 ± 5.77% and the inhibition at 3 µM (HIV-1NL4-3 [2]) was 16.2 ± 5.52%.
With `COC(=O)C1(C/C=C/Cl)Nc2ccc(OC)cc2C1=O` (stereo not drawn) [Compound 6b, Methyl (E)-2-(3-chloroallyl)-5-methoxy-3-oxindole-2-carboxylate] the “Inhibitory effect on viral replication (p24)” value (“Inhibitory effect” for short) (HIV-1NL4-3 [4]) was “no inhibition”, the “Inhibitory effect” value (HIV-1NL4-3 [5]) was “no inhibition” and the melting point was over 300 °C. For the same compound, the viability at 48 h, 3 µM [1] was 99.6 ± 14.2% and the inhibition at 3 µM (HIV-1NL4-3 [2]) was 0.55 ± 4.34%.
With `CC[C@H](CO)Nc1nc(NCc2ccccc2)c2ncn(C(C)C)c2n1` [seliciclib, Seliciclib, reference compound] the R-Luc activity [6] was “decrease in R-Luc activity” and the “Tat-induced transcriptional activity (F-Luc)” value [3] was “specific inhibition”.
For `CC(C)[C@]12O[C@H]1[C@@H]1O[C@]13[C@]1(O[C@H]1C[C@H]1C4=C(CC[C@@]13C)C(=O)OC4)[C@@H]2O` [triptolide, reference compound], the “Tat-induced transcriptional activity (F-Luc)” value [3] was “specific inhibition”.
In the case of `C=CCC1(C(=O)OC)Nc2cc(C)cc(C)c2C1=O` (stereo not drawn) [Compound 6h, Methyl 2-allyl-4,6-dimethyl-3-oxindole-2-carboxylate], the “Inhibitory effect” value (HIV-1NL4-3 [4]) is reported as “no inhibition”, the “Inhibitory effect” value (HIV-1NL4-3 [5]) is reported as “no inhibition” and the melting point is reported as 147 °C. For the same compound, the viability at 48 h, 3 µM [1] was 107 ± 4.73%, the inhibition at 3 µM (HIV-1NL4-3 [2]) was 23.6 ± 4.46% and the “Inhibition ratio” value (HIV-1NL4-3 [2]) was “did not show further increased inhibitory effect”.
For `CCCC1(C(=O)OC)Nc2cc(C)cc(C)c2C1=O` (stereo not drawn) [Compound 6i, Methyl 4,6-dimethyl-3-oxo-2-propylindoline-2-carboxylate], the “Inhibitory effect” value (HIV-1NL4-3 [4]) was “no inhibition”, the “Inhibitory effect” value (HIV-1NL4-3 [5]) was “no inhibition” and the melting point was 132 to 133 °C. For the same compound, the viability at 48 h, 3 µM [1] was 99.4 ± 8.83% and the inhibition at 3 µM (HIV-1NL4-3 [2]) was 9.15 ± 0.96%.
In the case of `CCOC(=O)C1(C/C=C/Cl)Nc2cccc(C)c2C1=O` (stereo not drawn) [Compound 6a, Ethyl (E)-2-(3-chloroallyl)-4-methyl-3-oxindole-2-carboxylate], the IC50 ([3]; Human immunodeficiency virus 1, 24 h, read-out: IC50 (inhibition of Tat-mediated HIV-1 transcription)) is reported as 9.53 ± 0.48 µM, the “Inhibitory effect” value (HIV-1NL4-3 [4]) is reported as “no inhibition” and the “Inhibitory effect” value (HIV-1NL4-3 [5]) is reported as “no inhibition”. It also gave a melting point of over 300 °C, a viability at 48 h, 3 µM [1] of 106 ± 9.33% and a CC50 at 48 h [1] of 87.4 ± 12.7 µM. It also gave an inhibition at 3 µM (HIV-1NL4-3 [2]) of about 20% and an IC50 (HIV-1NL4-3 [2]) of 13.7 ± 2.55 µM.
For `Cc1nnc(C(=O)NC(C)(C)c2nc(C(=O)NCc3ccc(F)cc3)c(O)c(=O)n2C)o1` [RAL, raltegravir], the “Inhibition of integrase activity” value (HIV-1 integrase) was “inhibited”.
